These results are taken from US6965039B2, “7-carboxy-flavone derivatives preparation method and therapeutic use” (Negma-Lerads, priority 2000, dated 2005).

For data set [1], the system named is IL-1 (interleukin 1). In words: Inhibition of IL-1 secretion on PBMC cells (method of Schindler). The format is cell-based. As to conditions: tests in duplicate. How it is done:
(§1) The inhibiting activity on the secretion of inflammatory cytokines of the compounds of the invention was tested in vitro, more particularly on the secretion of IL-1 (interleukin 1) and on IL-6 and TNFα (tumor necrosis factor), which are the main cytokines related to the arthrotic process.
(§2) The tests on these three cytokines were carried out on PBMC (Peripheral Blood Mononuclear Cells) cells according to the method of Schindler (R. Schindler et al., Blood, (1990) 75, 40-47) using cycloheximide (IL-1) and dexamethasone (IL-6, TNFα) as reference products.
(§3) The results of the tests carried out with the flavone derivatives of the invention described in examples 1, 4 and 6 above [sic] are combined in the following table. The tests were carried out in duplicate, at concentrations of 1 and 10 μM. The results are expressed as percentage of inhibition.

Data set [2] deals with IL-6. The data set is described as follows: Inhibition of IL-6 secretion on PBMC cells (method of Schindler). As to conditions: tests in duplicate. In kind it is cell-based. How it is done:
as §1, §2, §3

The subject of data set [3] is TNFα (tumor necrosis factor). The data set is described as follows: Inhibition of TNFα secretion on PBMC cells (method of Schindler). In kind it is cell-based. As to conditions: tests in duplicate, read-out: TNFα, percentage of inhibition. Here is the method: as §1, §2, §3
Data set [4] deals with prostaglandins (PGE2). In words: Secretion of prostaglandins (PGE2) on differentiated HL-60 cells (method of Honda). The format is cell-based. Here is the method:
The effect of the derivatives of the invention on the secretion of prostaglandins (PGE2), which increase articular inflammation, and of leukotriene (LTB4) was measured on differentiated HL-60 cells using the methods of Honda (M. Honda et al., Diabetes Res., (1990) 14, 43-46) and of Bennett (C. F. Bennett et al., Biochem. J., (1993) 289, 33-39), respectively, using indomethacin and nordihydroguaiaretic acid as reference products.

[5] abbreviates: read-out: IL1β, percentage of inhibition.
[6] abbreviates: read-out: IL6, percentage of inhibition.

Broadly, the inhibition is the percentage by which the read-out fell short of the control. For orientation: melting point means the temperature, or range, at which the solid turns liquid. As for `O=C(O)c1cc(O)c2c(=O)cc(-c3ccccc3)oc2c1` [Example 1, 5-Hydroxy-2-phenyl-4-oxo-4H-chromene-7-carboxylic acid], the melting point is 270 °C (dec.). Further, the inhibition at 1 µM in data set [1] (1 μM, read-out: IL1β, percentage of inhibition) came out at 15%. In addition, in data set [1] (setting [5]), the inhibition at 10 µM was 96%. Further, in data set [2] (1 μM, read-out: IL6, percentage of inhibition), the inhibition at 1 µM came to 50%. Moreover, in data set [2] (setting [6]), the inhibition at 10 µM turned out to be 98%. Further, the inhibition at 1 µM in data set [3] (1 μM) stood at 61%. The inhibition at 10 µM in data set [3] (10 μM) amounted to 32%.

For the molecule `COc1ccc(-c2cc(=O)c3c(O)cc(C(=O)O)cc3o2)cc1` [Example 4, 5-Hydroxy-0.2-(4′-methoxyphenyl)-4-oxo-4H-chromene-7-carboxylic acid], the “IL1β, percentage of inhibition” value in data set [1] (1 μM) is on record as under 10%. Moreover, the “IL6, percentage of inhibition” value in data set [2] (1 μM) worked out at 56%. For the same molecule, in data set [4], the “effect on the secretion of prostaglandins” value is “stimulating the secretion of prostaglandins”.

As for `O=C(O)c1cc(O)c2c(=O)cc(-c3ccc(C(F)(F)F)cc3)oc2c1` [Example 6, 5-Hydroxy-2-(4′-trifluoromethylphenyl)-4-oxo-4H-chromene-7-carboxylic acid], the inhibition at 10 µM in data set [1] (setting [5]) is 72%; in data set [2] (setting [6]), 100%.
